For experiment [1], the system named is pERK in H358 cells. Kind of experiment: pERK inhibition in H358 cells. It is filed as cell-based, human. The conditions noted are these: 4 hours treatment, read-out: Cellular pERK inhibition. A digest of the protocol: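 Human lung cancer H358 cells in RPMI/10% FBS were exposed to compound or DMSO for 4 h. Fixed and permeabilized cells were stained overnight at 4 C with anti-phospho-ERK1/2 (Thr202/Tyr204). Near-infrared imaging read the pERK signal at 800 nm, with DRAQ5 at 700 nm.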

The target in experiment [2] is T1, BRAF-GTP-KRAS-G12C complex (Homo sapiens, UniProt P01116, G12C).
T1 construct: 50 nM of His6-KRas G12C-GTP (1-169)
T1 sequence (P01116 1-169 isoform P01116-2 G12C, one chain of several): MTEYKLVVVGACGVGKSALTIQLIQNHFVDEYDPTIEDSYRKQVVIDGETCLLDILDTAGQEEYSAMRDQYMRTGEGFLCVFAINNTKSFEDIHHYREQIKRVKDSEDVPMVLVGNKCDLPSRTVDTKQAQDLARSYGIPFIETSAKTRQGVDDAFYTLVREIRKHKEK
Kind of experiment: KRAS-BRAF complex disruption TR-FRET without CYPA (presenter dependence). It is filed as biochemical. The procedure: (§1) In this example, TR-FRET was used to measure the compound-facilitated disruption of a KRAS-BRAF complex. A mixture of tagless Cyclophilin A, His6-KRAS G12C-GMP-PNP, and GST-BRAF RAS binding domain was added to a 384-well assay plate containing compounds of the invention and incubated for 3 hours. A mixture of Anti-His Eu-W1024 and anti-GST allophycocyanin was then added and the reaction was incubated for an additional 1.5 hours. TR-FRET signal was read on an EnVision microplate reader (Perkin Elmer, Ex 320 nm, Em 665/615 nm). Compounds that facilitate disruption of a KRAS_BRAF complex were identified as those eliciting a decrease in the TR-FRET ratio relative to DMSO control wells. To determine the presenter-dependence of the compound-mediated KRAS-BRAF complex disruption, Cyclophilin A was left out of the initial incubation (see Table 5). To determine G12C specificity of the compound-mediated KRAS-BRAF complex disruption, wild-type KRAS was used instead of G12C KRAS (see Table 5).
(§2) Reagents and Instrument • Tagless CYPA; 519 μM in PBS buffer, pH 7.4 • GST BRAF; 110 μM in PBS buffer, pH 7.4 • His6-KRASG12C-GMP-PNP; 50 μM in PBS buffer, pH 7.4 • His6-KRASWT-GMP-PNP; 40 μM in PBS buffer, pH 7.4 • Anti-His Eu-W1024 (LANCE® Eu-W1024; Perkin Elmer) • Anti-GST allophycocyanin (Anti-GST IgG conjugated to SureLight®-Allophycocyanin; Perkin Elmer; Product Number AD0059G) • Test compounds, 10 mM in 100% DMSO • EnVision (Perkin Elmer) • Combi MultiDrop liquid dispenser with 8-channel small volume cassette • 384-well ProxiPlate (black)
(§3) Experimental Protocol • 1. Use Mosquito to dispense 100 nL/well of compounds (varying concentration in […]) into 384-well black ProxiPlate to make assay-ready-plate (ARP). • 2. Make assay buffer containing 25 mM Hepes pH 7.3, 100 mM NaCl, 5 mM MgCl2, 0.05% BSA, and 0.002% Tween-20. • 3. Make PRE-MIX A: delivers final concentrations of 50 nM of His6-KRas G12C-GTP (1-169) and 500 nM of tagless CypA (1-165) in assay buffer. • a. […] Read on EnVision (Ex: 320 nm; Em1: 615 nm; Em2: 665 nm). • 8. […]
A general note: Time-resolved FRET reads energy transfer from a long-lived donor to a nearby acceptor.

For experiment [3], the target named is cyclophilin A (CYPA) (Homo sapiens, UniProt P62937). The experiment in a line: CYPA-compound binary complex formation by SPR. Particulars: read-out: CYPA Binding Affinity. In outline:
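Steady-state fit of SPR responses gave binding affinity. Analyte series: 50 μM downward, 2-fold, 10 points, running buffer HBS-P+ (0.05% Tween20, pH7.4, 2% DMSO), 60 s on/60 s off. Surface: biotinylated CypA-Avi captured at 4 μg/ml against a reference cell, regenerated with NaOH/guanidine.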

For experiment [4], the target named is T2, BRAF-GTP-KRASWT complex (Homo sapiens, UniProt P01116+P62937).
T2 construct: substitute His6-KRas WT-GTP (1-169) for His6-KRas G12C-GTP (1-169); 500 nM of tagless CypA (1-165)
T2 sequence (P01116 1-169 isoform P01116-2): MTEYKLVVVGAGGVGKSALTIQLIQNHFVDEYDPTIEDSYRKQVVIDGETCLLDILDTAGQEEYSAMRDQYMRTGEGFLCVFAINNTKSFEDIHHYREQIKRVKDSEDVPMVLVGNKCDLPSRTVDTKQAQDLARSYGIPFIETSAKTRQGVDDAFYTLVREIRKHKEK
T2 sequence (P62937 whole entry): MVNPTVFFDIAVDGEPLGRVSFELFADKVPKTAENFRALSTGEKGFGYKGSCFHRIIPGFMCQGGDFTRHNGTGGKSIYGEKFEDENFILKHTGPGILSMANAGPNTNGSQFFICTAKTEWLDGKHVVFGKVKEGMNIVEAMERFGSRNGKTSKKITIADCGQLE
Kind of experiment: KRAS-BRAF complex disruption TR-FRET with wild-type KRAS (G12C specificity). The experiment is classed as biochemical. The conditions noted are these: with CYPA. The protocol:
as §1, §2, §3

Sequence of cyclophilin A (CYPA) (P62937 whole entry): as above

`CC1COC(=O)C2CCCN(N2)C(=O)C(NC(=O)C(C(C)C)N(C)C(=O)C2CN(C(=O)CCl)C2)Cc2cc(O)cc(c2)-c2ccc3c(c2)c(cn3CC2COC2)C1` (mixture of isomers) [Compound 226]: the IC50 is 1 to 10 µM in experiment [1], over 30 µM in experiment [2] and over 30 µM in experiment [4]. Further, the Kd in experiment [3] was at most 5 µM.
Consider `CC1COC(=O)C2CCCN(N2)C(=O)C(NC(=O)C(C(C)C)N(C)C(=O)C2CN(C(=O)CCl)C2)Cc2cc(O)cc(c2)-c2ccc3c(S(C)(=O)=O)cn(c3c2)C1` (single isomer, unassigned) [Compound 110], for which the results for the IC50 in experiment [1], in experiment [2] and in experiment [4] were 1 to 10 µM, over 30 µM and over 30 µM, respectively. In experiment [3], the Kd is at most 5 µM.
